One assay addresses T1, E. coli K12 PBP3 (Escherichia coli, UniProt P0AD68).
T1 construct: made in house
The assay is described as follows: biochemical. Format: binding. An outline of the steps: (§1)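 Fluorescence polarization (ex 490/em 520 nm) competition of inhibitors against Bocillin-FL at 0.1 μM, read up to 60 min. Final PBP levels: E. coli PBP3 1.5 μM; A. baumannii PBP2 2.5 μM, PBP3 0.2 μM in Tris pH 8.0/NaCl/glycerol/Tween 20; N. gonorrhoeae PBP2 […] in Hepes pH 8.0/NaCl/glycerol. EC50 = concentration halving PBP-bound Bocillin-FL.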

In a further assay the target is T2, N. gonorrhoeae PBP2 (Neisseria gonorrhoeae, UniProt P08149).
T2 construct: made in house
T2 sequence (P08149 whole entry): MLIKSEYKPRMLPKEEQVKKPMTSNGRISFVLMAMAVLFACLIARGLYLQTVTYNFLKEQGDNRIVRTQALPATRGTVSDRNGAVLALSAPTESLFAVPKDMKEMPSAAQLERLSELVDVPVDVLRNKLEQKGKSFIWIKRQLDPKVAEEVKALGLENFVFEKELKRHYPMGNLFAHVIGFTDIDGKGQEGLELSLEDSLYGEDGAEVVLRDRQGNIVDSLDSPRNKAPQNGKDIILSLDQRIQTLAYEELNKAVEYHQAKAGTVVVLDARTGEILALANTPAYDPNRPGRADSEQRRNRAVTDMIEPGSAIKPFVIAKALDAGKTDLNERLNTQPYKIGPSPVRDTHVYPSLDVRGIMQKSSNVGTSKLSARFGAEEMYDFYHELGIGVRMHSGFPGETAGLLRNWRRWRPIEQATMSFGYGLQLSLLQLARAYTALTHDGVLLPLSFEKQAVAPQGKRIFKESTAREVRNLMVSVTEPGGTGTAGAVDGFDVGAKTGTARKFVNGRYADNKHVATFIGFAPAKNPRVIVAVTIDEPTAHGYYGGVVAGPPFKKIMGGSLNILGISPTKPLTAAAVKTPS
In words: Bocillin-FL fluorescence polarization competition binding assay, N. gonorrhoeae PBP2. The note with it: fluorescence polarization competition binding assay using Bocillin-FL; read-out: N. gonorrhoeae PBP2 Potency. An outline of the steps:
as §1

A further assay concerns P. aeruginosa ATCC 27853. The assay is described as follows: Broth microdilution MIC in iron-depleted CAMHB (IDM). The note with it: Pseudomonas aeruginosa, ATCC27853, read-out: Minimum Inhibitory Concentration, P. aeruginosa ATCC 27853. The assay is classed as cell-based. The essentials: (§2)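 CLSI broth microdilution in Chelex-treated cation-adjusted Mueller-Hinton broth, refortified with Ca, Mg and 10 μM ZnSO4, pH 7.3. Inoculum 2-8×10^5 CFU/mL; 37 °C for 16-20 h (Pseudomonas) or 20-24 h (Acinetobacter). MIC read visually as lowest concentration without growth.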
For orientation: Broth dilution looks for growth in wells or tubes with falling amounts of substance.

In assay [1] the test system is P. aeruginosa CDC-0095 producing OXA-50, and PAO. The description is as above. The note with it: Pseudomonas aeruginosa, read-out: Minimum Inhibitory Concentration, P. aeruginosa CDC-0095. Format: cell-based. The essentials: as §2
Assay [2] has as its system P. aeruginosa CDC-0054 producing VIM-4, OXA-50, and PAO. The assay is described as above. The note with it: Pseudomonas aeruginosa, read-out: Minimum Inhibitory Concentration, P. aeruginosa CDC-0054. Format: cell-based. The essentials: as §2
The next assay deals with A. baumannii ATCC 19606. The assay is described as above. Format: cell-based. As to conditions: Acinetobacter baumannii, ATCC19606, read-out: Minimum Inhibitory Concentration, ATCC 19606. The essentials: as §2

Values after ≈ are worked out from the molar mass of the structure shown. A value given as a limit tells only on which side of the number the result lay.

T1 sequence (P0AD68 1-577): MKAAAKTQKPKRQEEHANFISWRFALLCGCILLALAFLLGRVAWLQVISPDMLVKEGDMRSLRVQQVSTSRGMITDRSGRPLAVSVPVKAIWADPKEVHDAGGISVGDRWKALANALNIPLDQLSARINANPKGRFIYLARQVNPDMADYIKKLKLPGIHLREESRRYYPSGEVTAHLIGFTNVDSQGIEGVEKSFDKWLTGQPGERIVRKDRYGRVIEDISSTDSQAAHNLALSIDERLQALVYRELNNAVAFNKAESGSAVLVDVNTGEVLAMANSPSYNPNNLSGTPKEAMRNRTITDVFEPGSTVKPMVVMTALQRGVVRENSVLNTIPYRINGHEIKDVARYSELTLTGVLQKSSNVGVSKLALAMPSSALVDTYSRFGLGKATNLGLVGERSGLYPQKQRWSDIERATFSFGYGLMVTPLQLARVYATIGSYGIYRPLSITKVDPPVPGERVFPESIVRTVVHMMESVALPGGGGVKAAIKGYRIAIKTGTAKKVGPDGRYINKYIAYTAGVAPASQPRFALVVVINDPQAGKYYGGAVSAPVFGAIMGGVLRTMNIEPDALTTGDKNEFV

On to `CS(=O)(=O)N1CCN(C(=O)N[C@@H](C(=O)N[C@H]2Cc3ccc(F)c(C(=O)O)c3OB2O)c2cc(F)c(O)c(O)c2Cl)C1=O` (single isomer, unassigned) [Example 189], for which the EC50 at E. coli K12 PBP3 was below 30 µM; on N. gonorrhoeae PBP2, 10 to 30 µM. The MIC lay in the range of 0.5 to 1 µg/mL (≈ 0.79 to 1.58 µM) in the assay on P. aeruginosa ATCC 27853, 2 to 4 µg/mL (≈ 3.16 to 6.32 µM) in assay [1], 0.5 to 1 µg/mL (≈ 0.79 to 1.58 µM) in assay [2] and 0.5 to 1 µg/mL (≈ 0.79 to 1.58 µM) with A. baumannii ATCC 19606.

As for `CCN1CCN(C(=O)N[C@@H](C(=O)N[C@H]2Cc3ccc(F)c(C(=O)O)c3OB2O)c2c(Cl)cc(O)c(O)c2F)C(=O)C1=O` (single isomer, unassigned) [Example 207], the EC50 on E. coli K12 PBP3 was below 30 µM. Also, the MIC fell in the range of 2 to 4 µg/mL (≈ 3.27 to 6.55 µM) in the assay with P. aeruginosa ATCC 27853, 8 to 16 µg/mL (≈ 13.1 to 26.2 µM) in assay [1], 2 to 4 µg/mL (≈ 3.27 to 6.55 µM) in assay [2] and 0.5 to 1 µg/mL (≈ 0.819 to 1.64 µM) in the assay on A. baumannii ATCC 19606.

`O=C(NCCCN1CCN(C(=O)NC(C(=O)N[C@H]2Cc3cccc(C(=O)O)c3OB2O)c2ncc(O)cc2F)C(=O)C1=O)c1ccc(O)c(O)c1Cl` (stereo partly drawn) [Example 1, (3R)-3-(2-(4-(3-(2-chloro-3,4-dihydroxybenzamido)propyl)-2,3-dioxopiperazine-1-carboxamido)-2-(3-fluoro-5-hydroxypyridin-2-yl)acetamido)-2-hydroxy-3,4-dihydro-2H-benzo[e][1,2]oxaborinine-8-carboxylic acid] showed an EC50 on E. coli K12 PBP3 below 30 µM. Further, the figures for the MIC in the assay on P. aeruginosa ATCC 27853 and in the assay with A. baumannii ATCC 19606 were 8 to 16 µg/mL (≈ 10.8 to 21.5 µM) and 2 to 4 µg/mL (≈ 2.69 to 5.38 µM), respectively.

`C[C@H]1CN(CCNC(=O)c2ccc(O)c(O)c2Cl)C(=O)C(=O)N1C(=O)NC(C(=O)N[C@H]1Cc2cccc(C(=O)O)c2OB1O)c1ncc(O)cc1F` (stereo partly drawn) [Example 2, (3R)-3-(2-((S)-4-(2-(2-chloro-3,4-dihydroxybenzamido)ethyl)-6-methyl-2,3-dioxopiperazine-1-carboxamido)-2-(3-fluoro-5-hydroxypyridin-2-yl)acetamido)-2-hydroxy-3,4-dihydro-2H-benzo[e][1,2]oxaborinine-8-carboxylic acid] displayed an EC50 on E. coli K12 PBP3 below 30 µM. For the same molecule, the MIC was 2 to 4 µg/mL (≈ 2.69 to 5.38 µM) with P. aeruginosa ATCC 27853, 8 to 16 µg/mL (≈ 10.8 to 21.5 µM) in assay [1], 2 to 4 µg/mL (≈ 2.69 to 5.38 µM) in assay [2] and 0.5 to 1 µg/mL (≈ 0.673 to 1.35 µM) in the assay with A. baumannii ATCC 19606.

For the molecule `O=C(NCCCN1CCN(C(=O)NC(C(=O)N[C@H]2Cc3ccc(F)c(C(=O)O)c3OB2O)c2ncc(O)cc2F)C(=O)C1=O)c1ccc(O)c(O)c1Cl` (stereo partly drawn) [Example 3, (3R)-3-(2-(4-(3-(2-chloro-3,4-dihydroxybenzamido)propyl)-2,3-dioxopiperazine-1-carboxamido)-2-(3-fluoro-5-hydroxypyridin-2-yl)acetamido)-7-fluoro-2-hydroxy-3,4-dihydro-2H-benzo[e][1,2]oxaborinine-8-carboxylic acid], at E. coli K12 PBP3, the EC50 is below 30 µM. Moreover, the MIC in the assay on P. aeruginosa ATCC 27853 lay in the range of 2 to 4 µg/mL (≈ 2.63 to 5.26 µM); in assay [1], 8 to 16 µg/mL (≈ 10.5 to 21 µM); in assay [2], 2 to 4 µg/mL (≈ 2.63 to 5.26 µM); with A. baumannii ATCC 19606, 32 to 64 µg/mL (≈ 42.1 to 84.1 µM).

Consider `Nc1nc(C(NC(=O)N2CCN(CCNC(=O)c3ccc(O)c(O)c3Cl)C(=O)C2=O)C(=O)N[C@H]2Cc3ccc(F)c(C(=O)O)c3OB2O)c(F)s1` (stereo partly drawn) [Example 4, (3R)-3-(2-(2-amino-5-fluorothiazol-4-yl)-2-(4-(2-(2-chloro-3,4-dihydroxybenzamido)ethyl)-2,3-dioxopiperazine-1-carboxamido)acetamido)-7-fluoro-2-hydroxy-3,4-dihydro-2H-benzo[e][1,2]oxaborinine-8-carboxylic acid], for which, at E. coli K12 PBP3, the EC50 was below 30 µM. Besides, the MIC with P. aeruginosa ATCC 27853 was 0.25 µg/mL (≈ 0.333 µM); in assay [1], 0.5 to 1 µg/mL (≈ 0.665 to 1.33 µM); in assay [2], 0.5 to 1 µg/mL (≈ 0.665 to 1.33 µM); in the assay on A. baumannii ATCC 19606 it was 0.5 to 1 µg/mL (≈ 0.665 to 1.33 µM).

On to `O=C(NCCN1CCN(C(=O)NC(C(=O)N[C@H]2Cc3ccc(F)c(C(=O)O)c3OB2O)c2ncc(O)cc2F)C(=O)C1=O)c1c(F)cc(O)c(O)c1Cl` (stereo partly drawn) [Example 5, (3R)-3-(2-(4-(2-(2-chloro-6-fluoro-3,4-dihydroxybenzamido)ethyl)-2,3-dioxopiperazine-1-carboxamido)-2-(3-fluoro-5-hydroxypyridin-2-yl)acetamido)-7-fluoro-2-hydroxy-3,4-dihydro-2H-benzo[e][1,2]oxaborinine-8-carboxylic acid], for which the EC50 on E. coli K12 PBP3 was below 30 µM. Also, the MIC in the assay with P. aeruginosa ATCC 27853 was 0.25 µg/mL (≈ 0.327 µM); in assay [1], 0.5 to 1 µg/mL (≈ 0.654 to 1.31 µM); in assay [2], 0.25 µg/mL (≈ 0.327 µM); with A. baumannii ATCC 19606, 0.5 to 1 µg/mL (≈ 0.654 to 1.31 µM).

`Nc1nc(/C(=N/OC[C@H](NC(=O)c2ccc(O)c(O)c2Cl)C(=O)O)C(=O)N[C@H]2Cc3cccc(C(=O)O)c3OB2O)cs1` [Example 6, (R)-3-((Z)-2-(2-aminothiazol-4-yl)-2-(((S)-2-carboxy-2-(2-chloro-3,4-dihydroxybenzamido)ethoxy)imino)acetamido)-2-hydroxy-3,4-dihydro-2H-benzo[e][1,2]oxaborinine-8-carboxylic acid] yielded an EC50 on E. coli K12 PBP3 of 30 to 500 µM. Further, the MIC with P. aeruginosa ATCC 27853 fell in the range of 0.5 to 1 µg/mL (≈ 0.789 to 1.58 µM); in assay [1], 2 to 4 µg/mL (≈ 3.16 to 6.31 µM); in assay [2] it was 0.5 to 1 µg/mL (≈ 0.789 to 1.58 µM); with A. baumannii ATCC 19606, 32 to 64 µg/mL (≈ 50.5 to 101 µM).

As for `NCCCN1CCN(C(=O)N[C@@H](C(=O)N[C@H]2Cc3cc(Cl)c(F)c(C(=O)O)c3OB2O)c2c(F)cc(O)c(O)c2Cl)C(=O)C1=O` [Example 190, (R)-3-((R)-2-(4-(3-aminopropyl)-2,3-dioxopiperazine-1-carboxamido)-2-(2-chloro-6-fluoro-3,4-dihydroxyphenyl)acetamido)-6-chloro-7-fluoro-2-hydroxy-3,4-dihydro-2H-benzo[e][1,2]oxaborinine-8-carboxylic acid], the EC50 is below 30 µM at E. coli K12 PBP3 and above 100 µM on N. gonorrhoeae PBP2. Also, the MIC in the assay on P. aeruginosa ATCC 27853 is 2 to 4 µg/mL (≈ 2.97 to 5.93 µM); in assay [1] it was 8 to 16 µg/mL (≈ 11.9 to 23.7 µM); in assay [2], 8 to 16 µg/mL (≈ 11.9 to 23.7 µM); with A. baumannii ATCC 19606 it was above 128 µg/mL.

Consider `CCN1CCN(C(=O)N[C@@H](C(=O)N[C@H]2Cc3cc(Cl)c(F)c(C(=O)O)c3OB2O)c2c(F)cc(O)c(O)c2Cl)C(=O)C1=O` [Example 191, (R)-6-chloro-3-((R)-2-(2-chloro-6-fluoro-3,4-dihydroxyphenyl)-2-(4-ethyl-2,3-dioxopiperazine-1-carboxamido)acetamido)-7-fluoro-2-hydroxy-3,4-dihydro-2H-benzo[e][1,2]oxaborinine-8-carboxylic acid], for which the EC50 was below 30 µM on E. coli K12 PBP3 and 30 to 100 µM on N. gonorrhoeae PBP2. Moreover, the MIC in the assay on P. aeruginosa ATCC 27853 was in the range of 2 to 4 µg/mL (≈ 3.1 to 6.2 µM); in assay [1], 8 to 16 µg/mL (≈ 12.4 to 24.8 µM); in assay [2], 2 to 4 µg/mL (≈ 3.1 to 6.2 µM); in the assay on A. baumannii ATCC 19606, 8 to 16 µg/mL (≈ 12.4 to 24.8 µM).

In turn, `CS(=O)(=O)N1CCN(C(=O)NC(C(=O)N[C@H]2Cc3ccc(F)c(C(=O)O)c3OB2O)c2c(Cl)cc(O)c(O)c2F)C1=O` (stereo partly drawn) [Example 208, (3R)-3-(2-(6-chloro-2-fluoro-3,4-dihydroxyphenyl)-2-(3-(methylsulfonyl)-2-oxoimidazolidine-1-carboxamido)acetamido)-7-fluoro-2-hydroxy-3,4-dihydro-2H-benzo[e][1,2]oxaborinine-8-carboxylic acid] showed an EC50 at E. coli K12 PBP3 below 30 µM. Moreover, the MIC was 2 to 4 µg/mL (≈ 3.16 to 6.32 µM) in the assay on P. aeruginosa ATCC 27853, 32 to 64 µg/mL (≈ 50.6 to 101 µM) in assay [1], 32 to 64 µg/mL (≈ 50.6 to 101 µM) in assay [2] and 2 to 4 µg/mL (≈ 3.16 to 6.32 µM) in the assay with A. baumannii ATCC 19606.

On to `CCN1CCN(C(=O)N[C@H](C(=O)N[C@H]2Cc3ccc(F)c(C(=O)O)c3OB2O)c2ccc(O)c(O)c2)C(=O)C1=O` [Example 210, (R)-3-((S)-2-(3,4-dihydroxyphenyl)-2-(4-ethyl-2,3-dioxopiperazine-1-carboxamido)acetamido)-7-fluoro-2-hydroxy-3,4-dihydro-2H-benzo[e][1,2]oxaborinine-8-carboxylic acid], for which the EC50 at E. coli K12 PBP3 is above 500 µM. For the same molecule, the MIC (in the assay on P. aeruginosa ATCC 27853; in assay [1]; in assay [2]; in the assay on A. baumannii ATCC 19606) was above 128 µg/mL each time.

In turn, `CCN1CCN(C(=O)N[C@@H](C(=O)N[C@H]2Cc3ccc(F)c(C(=O)O)c3OB2O)c2ccc(O)c(O)c2)C(=O)C1=O` [Example 211, (R)-3-((R)-2-(3,4-dihydroxyphenyl)-2-(4-ethyl-2,3-dioxopiperazine-1-carboxamido)acetamido)-7-fluoro-2-hydroxy-3,4-dihydro-2H-benzo[e][1,2]oxaborinine-8-carboxylic acid] had an EC50 at E. coli K12 PBP3 below 30 µM. In addition, the MIC in the assay on P. aeruginosa ATCC 27853 lay in the range of 8 to 16 µg/mL (≈ 14.3 to 28.7 µM); in assay [1], 8 to 16 µg/mL (≈ 14.3 to 28.7 µM); in assay [2], 8 to 16 µg/mL (≈ 14.3 to 28.7 µM); in the assay on A. baumannii ATCC 19606, 2 to 4 µg/mL (≈ 3.58 to 7.16 µM).

With `NCCN1CCN(C(=O)N[C@@H](C(=O)N[C@H]2Cc3ccc(F)c(C(=O)O)c3OB2O)c2c(F)c(F)c(O)c(O)c2Cl)C(=O)C1=O` [Example 226, (R)-3-((R)-2-(4-(2-aminoethyl)-2,3-dioxopiperazine-1-carboxamido)-2-(2-chloro-5,6-difluoro-3,4-dihydroxyphenyl)acetamido)-7-fluoro-2-hydroxy-3,4-dihydro-2H-benzo[e][1,2]oxaborinine-8-carboxylic acid], the MIC in the assay with P. aeruginosa ATCC 27853 fell in the range of 0.5 to 1 µg/mL (≈ 0.777 to 1.55 µM); in assay [1] it was 2 to 4 µg/mL (≈ 3.11 to 6.21 µM); in assay [2], 2 to 4 µg/mL (≈ 3.11 to 6.21 µM); with A. baumannii ATCC 19606, 0.5 to 1 µg/mL (≈ 0.777 to 1.55 µM).

The values are drawn from patent US20230114728A1 (Venatorx Pharmaceuticals, Inc., priority 2019, published 2023).
